# Measurements reported in article doi:10.1101/2025.09.24.678246 (bioRxiv, 2025).
# pKi: −log10 of the molar value. Values joined by “and” are separate entries in the source; they are usually repeats but may differ in a detail not shown here. Equal entries are not always repeated. Where two headings read alike, the source gives them in different places.
# What was measured:
# BioA = BioA (Mycobacterium tuberculosis, UniProt P9WQ81); experiment: BioA Ki determination (tight binding, Morrison equation, 5 nM BioA); format: biochemical
# Mtb H37Rv [1] = experiment: microbe, parasite or virus in culture; format: cell-based, Mycobacterium tuberculosis; conditions: Mycobacterium tuberculosis, H37RV; biotin-free medium
# Mtb H37Rv [2] = experiment: Supplementation experiments in Mtb (KAPA, DAPA, DTB, biotin); format: cell-based, Mycobacterium tuberculosis
# WT H37Rv [3] = experiment: Agar MIC of C48; format: cell-based; conditions: Mycobacterium tuberculosis, 504 h
# WT H37Rv [4] = experiment: Time-kill kinetics in GAST medium; format: cell-based, Mycobacterium tuberculosis; conditions: for OD580 of C48 kill kinetics: 10µM C48, GAST medium
# M. bovis 0AF2122 = experiment: microbe, parasite or virus in culture; format: cell-based; conditions: Mycobacterium tuberculosis variant bovis
# M. africanum = experiment: MIC screening against M. africanum; format: cell-based; conditions: Mycobacterium tuberculosis, MTBC
# M. abscessus = experiment: MIC screening against M. abscessus (NTM); format: cell-based; conditions: Mycobacteroides abscessus
# S. aureus = experiment: MIC screening: S. aureus; format: cell-based
# Description: Supplement media-1.docx, table 4: Supplemental Table S4. MIC screening of C48 against a panel of pathogens and strains | column: C48 MIC (µM)^b
# Mtb = experiment: Membrane fluidity measurements (laurdan GP); format: cell-based, Mycobacterium tuberculosis; conditions: 150 nM
# Mtb H37Rv [5] = experiment: C48 biotin deficient TB efficacy study; format: in vivo, BALB/c mice; conditions: for bacterial burden per mouse, Fig. 5C / bacterial burden per mouse, Fig. 5D (second organ, not given): 200mg/kg
# [6] = p.o.; for C48 in Plasma / C48 in lung: CD-1 mice
# HepG2 = conditions: for Growth compared to DMSO control (%): HepG2 cell
# HT-29 = conditions: 48 h; for Growth compared to DMSO control (%): HT-29 cell
# in vivo = conditions: female, CD-1, mouse
# E. faecium ATCC 19434 = experiment: MIC screening: E. faecium
# Description: (§1) MIC measurements were based on a method previously described[6]. Overnight liquid cultures of E. coli BW, E. coli C0244, A. baumannii ATCC 17978, K. pneumoniae ATCC 43816, P. aeruginosa PA01 and E. faecium ATCC 19434 strains were inoculated with a single colony from a freshly streaked agar plate of the corresponding bacterial strain and cultured in M9 minimal medium supplemented with amino acids[6]. The bacterial culture was prepared by washing 1 mL of overnight culture in PBS pH 7.4 (x3), then diluted to OD600 = 0.5 and used to inoculate 1:1000 in M9 minimal medium with amino acids in 96-well plates. Compounds were added to 96-well plates in two-fold serial dilutions. The plates were incubated stationary at 37 °C for 18 h, then OD600 was measured. […] The assay was performed in duplicate.
# [7] = test system: ESKAPE panel of pathogens; experiment: MIC screening against the ESKAPE panel (summary)
# Description: as §1
# E. coli = experiment: MIC screening against Gram-negative pathogens: E. coli
# Description: as §1
# A. baumannii ATCC 17978 = experiment: MIC screening against Gram-negative pathogens: A. baumannii
# Description: as §1
# [8] = 200 mg/kg p.o. once daily, three weeks, biotin-deficient BALB/c
# [9] = day 7 (values identical to Control: baseline)
# Sequence of BioA (P9WQ81 whole entry, looked up): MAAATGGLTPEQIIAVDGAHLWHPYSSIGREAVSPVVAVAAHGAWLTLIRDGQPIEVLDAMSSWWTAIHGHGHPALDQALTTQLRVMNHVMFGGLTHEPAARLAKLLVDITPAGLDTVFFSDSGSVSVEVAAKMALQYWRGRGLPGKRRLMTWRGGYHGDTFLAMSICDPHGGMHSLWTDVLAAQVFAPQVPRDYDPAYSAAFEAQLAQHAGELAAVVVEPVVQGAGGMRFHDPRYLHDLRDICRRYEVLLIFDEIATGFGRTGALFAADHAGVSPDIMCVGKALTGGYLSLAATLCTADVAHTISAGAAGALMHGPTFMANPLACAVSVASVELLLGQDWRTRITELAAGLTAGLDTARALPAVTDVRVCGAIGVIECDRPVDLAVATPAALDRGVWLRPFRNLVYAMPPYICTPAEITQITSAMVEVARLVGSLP
smiles,measurement,setting,value
O=C1CCc2cc(N3CCN(C(=O)c4ccc(F)c(Br)c4)CC3)ncc21 [C48],pKi,"BioA; 5 nM BioA, Morrison analysis, read-out: BioA inhibition constant (Ki)",9.70
same,remaining activity at 0.000520246 µM,"BioA; Fig. 2A, [Inhibitor C48] 0.520246 nM, read-out: Fractional Vilocity (Vi/Vo %)",104%
same,remaining activity at 0.000780369 µM,"BioA; Fig. 2A, [Inhibitor C48] 0.780369 nM, read-out: Fractional Vilocity (Vi/Vo %)",90.9%
same,remaining activity at 0.00117055 µM,"BioA; Fig. 2A, [Inhibitor C48] 1.17055 nM, read-out: Fractional Vilocity (Vi/Vo %)",87.2%
same,remaining activity at 0.00175583 µM,"BioA; Fig. 2A, [Inhibitor C48] 1.75583 nM, read-out: Fractional Vilocity (Vi/Vo %)",81%
same,remaining activity at 0.00263374 µM,"BioA; Fig. 2A, [Inhibitor C48] 2.63374 nM, read-out: Fractional Vilocity (Vi/Vo %)",71.8%
same,remaining activity at 0.00395062 µM,"BioA; Fig. 2A, [Inhibitor C48] 3.95062 nM, read-out: Fractional Vilocity (Vi/Vo %)",58.3%
same,remaining activity at 0.00592593 µM,"BioA; Fig. 2A, [Inhibitor C48] 5.92593 nM, read-out: Fractional Vilocity (Vi/Vo %)",37.4%
same,remaining activity at 0.0074 µM,"BioA; Fig. 2A, [Inhibitor C48] 7.4 nM, read-out: Fractional Vilocity (Vi/Vo %)",29.2%
same,remaining activity at 0.00888889 µM,"BioA; Fig. 2A, [Inhibitor C48] 8.88889 nM, read-out: Fractional Vilocity (Vi/Vo %)",20.9%
same,remaining activity at 0.0133333 µM,"BioA; Fig. 2A, [Inhibitor C48] 13.3333 nM, read-out: Fractional Vilocity (Vi/Vo %)",9.57%
same,remaining activity at 0.02 µM,"BioA; Fig. 2A, [Inhibitor C48] 20 nM, read-out: Fractional Vilocity (Vi/Vo %)",4.24%
same,remaining activity at 0.03 µM,"BioA; Fig. 2A, [Inhibitor C48] 30 nM, read-out: Fractional Vilocity (Vi/Vo %)",1.42%
same,remaining activity at […],BioA; read-out: Fractional Vilocity (Vi/Vo %),13.1%
same,MIC50,Mtb H37Rv [1],0.093 µM
same,activity against Mtb cultured with 40 nM biotin,Mtb H37Rv [2]; 40 nM biotin,minimal activity
same,growth inhibitory effect with biotin supplementation,"Mtb H37Rv [2]; 2 μM biotin, GAST",antagonized
same,growth inhibitory effect with DAPA supplementation,"Mtb H37Rv [2]; 50 μM DAPA, GAST",antagonized
same,growth inhibitory effect with desthiobiotin (DTB) supplementation,"Mtb H37Rv [2]; 50 μM DTB, GAST",antagonized
same,growth inhibitory effect with KAPA supplementation,"Mtb H37Rv [2]; 50 μM KAPA, GAST",not
same,MIC,WT H37Rv [3],0.8 µM
same,rate of CFU decline,"WT H37Rv [4]; 10 μM, biotin-free medium, after about three doublings",one log10 CFU per week
same,OD580 of C48 kill kinetics,WT H37Rv [4]; day 0,0.001
same,OD580 of C48 kill kinetics,WT H37Rv [4]; day 2,0.004
same,OD580 of C48 kill kinetics,WT H37Rv [4]; day 4,0.008
same,OD580 of C48 kill kinetics,WT H37Rv [4]; day 8,0.01
same,OD580 of C48 kill kinetics,WT H37Rv [4]; day 11,0.016
same,OD580 of C48 kill kinetics,WT H37Rv [4]; day 14,0.012
same,OD580 of C48 kill kinetics,WT H37Rv [4]; day 16,0.012
same,OD580 of C48 kill kinetics,WT H37Rv [4]; day 18,0.012
same,OD580 of C48 kill kinetics,WT H37Rv [4]; day 21,0.01
same,OD580 of C48 kill kinetics,WT H37Rv [4]; day 23,0.01
same,OD580 of C48 kill kinetics,WT H37Rv [4]; day 25,0.01
same,OD580 of C48 kill kinetics,WT H37Rv [4]; day 28,0.008
same,OD580 of C48 kill kinetics,WT H37Rv [4]; day 32,0.008
same,OD580 of C48 kill kinetics,WT H37Rv [4]; day 35,0.008
same,OD580 of C48 kill kinetics,WT H37Rv [4]; day 39,0.008
same,OD580 of C48 kill kinetics,WT H37Rv [4]; day 42,0.008
same,OD580 of C48 kill kinetics,WT H37Rv [4]; day 46,0.008
same,OD580 of C48 kill kinetics,WT H37Rv [4]; day 49,0.008
same,OD580 of C48 kill kinetics,WT H37Rv [4]; day 53,0.008
same,OD580 of C48 kill kinetics,WT H37Rv [4]; day 56,0.008
same,OD580 of C48 kill kinetics,WT H37Rv [4]; day 60,0.008
same,OD580 of C48 kill kinetics,WT H37Rv [4]; day 63,0.008
same,OD580 of C48 kill kinetics,WT H37Rv [4]; day 67,0.008
same,MIC,M. bovis 0AF2122,0.0313 µM
same,MIC,M. africanum,0.012 µM
same,MIC,"M. abscessus; ATCC19977, read-out: MIC (50% growth inhibition), M. abscessus (ATCC19977), reference strain",0.5 µM
same,MIC,"M. abscessus; M. abscessus, NTM, footnote mark d, read-out: MIC",0.5 to 1 µM
same,MIC,"M. abscessus; read-out: MIC (50% growth inhibition), M. abscessus BWH-B, clinical strain",0.5 µM
same,MIC,"M. abscessus; read-out: MIC (50% growth inhibition), M. abscessus BWH-D, clinical strain",0.5 µM
same,MIC,"M. abscessus; read-out: MIC (50% growth inhibition), M. abscessus T35, clinical strain",0.5 µM
same,MIC,"M. abscessus; read-out: MIC (50% growth inhibition), M. abscessus T37, clinical strain",1 µM
same,MIC,"M. abscessus; read-out: MIC (50% growth inhibition), M. abscessus T38, clinical strain",1 µM
same,MIC,"M. abscessus; read-out: MIC (50% growth inhibition), M. abscessus T49, clinical strain",0.5 µM
same,MIC,M. abscessus; read-out: MICs against nontuberculous mycobacteria (NTM),0.5 to 1 µM
same,MIC,S. aureus,inactive
same,Laurdan GP,Mtb; +Biotin,0.2273 and 0.2244 and 0.2183
same,Laurdan GP,Mtb; -Biotin,0.2797 and 0.2817 and 0.2774
same,laurdan GP change,Mtb; without biotin,increase
same,reduction of bacterial burden in lungs,Mtb H37Rv [5]; [8],1.0 log10 CFU
same,reduction of bacterial burden in spleen,Mtb H37Rv [5]; [8],2.1 log10 CFU
same,"bacterial burden per mouse, Fig. 5C",Mtb H37Rv [5]; [9],700 and 200 and 360 and 1090 and 400 and 320
same,"bacterial burden per mouse, Fig. 5D (second organ, not given)",Mtb H37Rv [5]; [9],1
same,"bacterial burden per mouse, Fig. 5C",Mtb H37Rv [5]; day 21,88000 and 30000 and 12000 and 11000 and 133000 and 32000
same,"bacterial burden per mouse, Fig. 5D (second organ, not given)",Mtb H37Rv [5]; day 21,90 and 1 (3×) and 20 and 70
same,"bacterial burden per mouse, Fig. 5C",Mtb H37Rv [5]; day 28,9700 and 74000 and 49000 and 29000 and 48000 (2×) and 36000
same,"bacterial burden per mouse, Fig. 5D (second organ, not given)",Mtb H37Rv [5]; day 28,20 and 6700 and 30 and 170 and 790 and 10 and 180
same,"plasma concentration, dose escalation","50 mg/kg p.o. for 4 days, 1 hr",61800 and 52800 and 56400
same,"plasma concentration, dose escalation","50 mg/kg p.o. for 4 days, 24 hr",12.4 and 12.1 and 9.65
same,"plasma concentration, dose escalation","100 mg/kg p.o. for 4 days, 0 hr",14 and 10 and 13
same,"plasma concentration, dose escalation","100 mg/kg p.o. for 4 days, 1 hr",112000 and 72300 and 72800
same,"plasma concentration, dose escalation","200 mg/kg p.o. for 4 days, 0 hr",16 and 17 and 26
same,"plasma concentration, dose escalation","200 mg/kg p.o. for 4 days, 1 hr",74500 and 50900 and 86400
same,"plasma concentration, dose escalation","200 mg/kg p.o. for 4 days, 5 hr",57700 and 39600 and 50300
same,tolerability in dose escalation,p.o. 50-200 mg/kg for 4 days,well tolerated
same,oral absorption in dose escalation,p.o. up to 200 mg/kg,linear oral absorption
same,delivery into the lungs,[6],efficiently delivered into the lungs
same,C48 in Plasma,[6]; 0 hr,0 ng/mL
same,C48 in lung,[6]; 0 hr,0 ng/mL
same,C48 in Plasma,[6]; 1 hr,17400 ng/mL and 12000 ng/mL and 17900 ng/mL
same,C48 in lung,[6]; 1 hr,11264.6 ng/mL and 8012.8 ng/mL and 9904.4 ng/mL
same,C48 in Plasma,[6]; 3 hr,7710 ng/mL and 11800 ng/mL and 12100 ng/mL
same,C48 in lung,[6]; 3 hr,3273.1 ng/mL and 5600.4 ng/mL and 5866.1 ng/mL
same,therapeutic index (IC50/MIC50),HepG2; HepG2 and HT-29 versus Mtb,"greater than 10,000"
same,Growth compared to DMSO control (%),"HepG2; 3.13 μM, 48 h",106.559% and 101.297% and 106.056%
same,Growth compared to DMSO control (%),"HepG2; 6.25 μM, 48 h",105.369% and 100.246%
same,Growth compared to DMSO control (%),"HepG2; 12.5 μM, 48 h",104.304% and 99.8833%
same,Growth compared to DMSO control (%),"HepG2; 25 μM, 48 h",105.369% and 101.144%
same,Growth compared to DMSO control (%),"HepG2; 50 μM, 48 h",106.056% and 100.625% and 106.559%
same,Growth compared to DMSO control (%),"HepG2; 100 μM, 48 h",110.419% and 100.81% and 101.702%
same,cytotoxicity toward HepG2,"HepG2; concentrations up to 100 μM, 48 h",no cytotoxicity
same,Growth compared to DMSO control (%),HT-29; 3.13 μM,103.339% and 102.14% and 102.153%
same,Growth compared to DMSO control (%),HT-29; 6.25 μM,105.34% and 100.609% and 100.571%
same,Growth compared to DMSO control (%),HT-29; 12.5 μM,103.832% and 99.2439% and 99.2304%
same,Growth compared to DMSO control (%),HT-29; 25 μM,102.371% and 98.4085% and 97.2044%
same,Growth compared to DMSO control (%),HT-29; 50 μM,101.665% and 97.1295% and 96.4305%
same,Growth compared to DMSO control (%),HT-29; 100 μM,100.396% and 97.8669% and 97.7498%
same,cytotoxicity toward HT-29,HT-29; concentrations up to 100 μM,no cytotoxicity
same,half-life,in vivo,54.6 min
same,Vd,in vivo; iv,0.26 L/kg
same,clearance,in vivo; iv,3.2 mL/min/kg
same,half-life,in vivo; iv,54.6 min
same,AUC(0-inf),"in vivo; po, 25 mg/kg",146 µg·h/mL
same,bioavailability,"in vivo; po, 25 mg/kg",> 100%
same,MIC,E. faecium ATCC 19434,inactive
same,activity against the entire ESKAPE panel,[7],inactive
same,MIC,E. coli; E. coli BW,inactive
same,MIC,E. coli; E. coli C0244,inactive
same,MIC,A. baumannii ATCC 17978,inactive
